Measurements as given in patent publication US12304899B2, “Factor XI activation inhibitors” (Merck Sharp & Dohme LLC, priority 2019, dated 2025).

Target: T1, Human coagulation factor (F)XI (Homo sapiens, UniProt P03951)
T1 construct: purchased Haematologic Technologies Inc. (FXI); Enzyme Research Laboratories (FXIIa) HCXI-150 (FXI); HFXIIa (FXIIa)
Experiment: Inhibition of FXIIa mediated activation of FXI (activation of human Factor XI to XIa by human Factor α-XIIa)
Format: biochemical
Details: human FXI pre-incubated with compound 30 min at 22° C., activation by human FXIIa 60 min, z-GPR-AFC substrate fluorescence, 4 parameter logistic fit; read-out: Inhibition of FXIIa meditated activation of FXI
Method: Inhibition of FXIIa Mediated Activation of FXI
Activation of Human Factor XI to XIa by Human Factor α-XIIa
The assay was performed in 50 mM HEPES, 150 mM NaCl, 5 mM CaCl2, 0.1% PEG-8000, pH 7.4 buffer in black, flat-bottom, polystyrene microplates (Corning, Cat #3573). Serial dilutions (10-point, 3.333-fold) of the test compounds delivered as 10 mM DMSO stocks were prepared in the Labcyte Echo-qualified PP 384 well microplates (Labcyte, Cat #P-05525). Human coagulation factor (F)XI (Haematologic Technologies Inc., Cat #HCXI-150, concentration 46 nM, 19.5 uL) was pre-incubated with 0.5 uL of the test compounds for 30 min at 22° C. The activation was initiated by addition of 10 uL of human coagulation factor (F)XIIa (Enzyme Research Laboratories, Cat #HFXIIa, concentration 30 nM) and the reaction proceeded for 60 min at 22° C., after which it was quenched by addition of a selective inhibitor of FXIIa (Compound 54 in International Patent Publication WO2018093695) concentration 600 uM in DMSO, 1 uL). 10 min after the quench, 29 uL of z-GPR-AFC substrate (Sigma, Cat #C0980-10 MG, concentration 200 uM) was added into each well and the detection reaction proceeded for 60 min at 22° C. Fluorescence at 405/510 nm was measured in end-point mode using an Envision plate-reader (Perkin Elmer). IDBS Activity Base XE (ABase) analysis using 4 parameter logistic fit was performed to determine Minimum, Maximum, EC50, and Slope Factor for each compound.

T1 sequence (P03951 19-625): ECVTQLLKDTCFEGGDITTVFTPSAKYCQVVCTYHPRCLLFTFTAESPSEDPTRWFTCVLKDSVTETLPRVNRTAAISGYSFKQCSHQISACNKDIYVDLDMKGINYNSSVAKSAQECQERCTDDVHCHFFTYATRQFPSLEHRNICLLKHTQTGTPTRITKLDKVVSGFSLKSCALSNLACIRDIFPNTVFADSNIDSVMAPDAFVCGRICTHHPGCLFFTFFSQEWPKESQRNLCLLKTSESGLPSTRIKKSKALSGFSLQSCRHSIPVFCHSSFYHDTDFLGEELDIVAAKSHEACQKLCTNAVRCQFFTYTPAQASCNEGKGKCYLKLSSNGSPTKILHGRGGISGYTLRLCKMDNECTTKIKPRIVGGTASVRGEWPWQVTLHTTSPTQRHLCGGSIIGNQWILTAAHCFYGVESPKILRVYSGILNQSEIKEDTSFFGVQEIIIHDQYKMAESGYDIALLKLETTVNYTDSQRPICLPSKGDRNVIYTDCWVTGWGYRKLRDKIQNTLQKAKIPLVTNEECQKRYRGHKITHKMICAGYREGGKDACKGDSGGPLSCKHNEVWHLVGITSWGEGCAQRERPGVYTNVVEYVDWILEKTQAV

SMILES | EC50
O=C1OCc2ccc(COc3ccc4nc(C(=O)N5CCC(n6cccn6)CC5)cc(C(=O)N5CCCCC5)c4c3)cc21 [Example 20, 6-(((2-(4-(1H-pyrazol-1-yl)-piperidine-1-carbonyl)-4-(piperidine-1-carbonyl)-quinolin-6-yl)oxy)methyl)-isobenzofuran-1(3H)-one] | 35.8 nM
O=C(c1cc(C(=O)N2CCCCC2)c2cc(OCc3ccc(Cl)cc3)ccc2n1)N1CCC(n2cccn2)CC1 [Example 21, (4-(1H-pyrazol-1-yl)piperidin-1-yl)(6-((4-chlorobenzyl)oxy)-4-(piperidine-1-carbonyl)quin-olin-2-yl)methanone] | 34.3 nM
O=C(c1cc(C(=O)N2CCCCC2)c2cc(OCc3cc4ccccn4n3)ccc2n1)N1CCC(n2cccn2)CC1 [Example 22, (4-(1H-pyrazol-1-yl)piperidin-1-yl)(4-(piperidine-1-carbon-yl)-6-(pyrazolo[1,5-a]pyridin-2-ylmethoxy)quinolin-2-yl) methanone] | 44.6 nM
O=C(c1cc(C(=O)N2CCCCC2)c2cc(OCc3nc4ccccc4o3)ccc2n1)N1CCC(n2cccn2)CC1 [Example 23, (4-(1H-pyrazol-1-yl)piperidin-1-yl)(6-(benzo[d]oxazol-2-ylmethoxy)-4-(piperidine-1-carbonyl)quinolin-2-yl) methanone] | 36.6 nM
Cn1c(COc2ccc3nc(C(=O)N4CCC(n5cccn5)CC4)cc(C(=O)N4CCCCC4)c3c2)nc2ccccc21 [Example 24, (4-(1H-pyrazol-1-yl)piperidin-1-yl)(6-((1-methyl-1H-benzo-[d]imidazol-2-yl)methoxy)-4-(piperidine-1-carbonyl)-quinolin-2-yl)methanone] | 28.9 nM
O=C(c1cc(C(=O)N2CCCCC2)c2cc(OCc3cn4ccccc4n3)ccc2n1)N1CCC(n2cccn2)CC1 [Example 25, (4-(1H-pyrazol-1-yl)piperidin-1-yl)(6-(imidazo[1,2-a]-pyridin-2-ylmethoxy)-4-(piperidine-1-carbonyl)quin-olin-2-yl)methanone] | 34.2 nM
O=C(c1cc(C(=O)N2CCCCC2)c2cc(OCc3nc4ccccc4s3)ccc2n1)N1CCC(n2cccn2)CC1 [Example 26, (4-(1H-pyrazol-1-yl)piperidin-1-yl)(6-(benzo[d]thiazol-2-ylmethoxy)-4-(piperidine-1-carbonyl)quinolin-2-yl) methanone] | 28.9 nM
N#Cc1cc(Cl)ccc1COc1ccc2nc(C(=O)N3CCC(C#N)(c4ccccc4)CC3)cc(C(=O)N3CCCCC3)c2c1 [Example 27, 1-(6-((4-chloro-2-cyanobenzyl)oxy)-4-(piperidine-1l-carbonyl)quinoline-2-carbonyl)-4-phenylpiperidine-4-carbonitrile] | 39 nM
N#CC1(c2ccccc2)CCN(C(=O)c2cc(C(=O)N3CCCCC3)c3cc(OCc4ccc(F)cc4[N+](=O)[O-])ccc3n2)CC1 [Example 28, 1-(6-((4-fluoro-2-nitro-benzyl)oxy)-4-(piperidine-1-carbonyl)quinoline-2-carbon-yl)-4-phenylpiperidine-4-carbonitrile] | 38.9 nM
N#CC1(c2ccccc2)CCN(C(=O)c2cc(C(=O)N3CCCCC3)c3cc(OCc4cccc([N+](=O)[O-])c4)ccc3n2)CC1 [Example 29, 1-(6-((3-nitrobenzyl)oxy)-4-(piperidine-1-carbonyl)quin-oline-2-carbonyl)-4-phenyl-piperidine-4-carbonitrile] | 39.7 nM
N#Cc1ccccc1COc1ccc2nc(C(=O)N3CCC(C#N)(c4ccccc4)CC3)cc(C(=O)N3CCCCC3)c2c1 [Example 30, 1-(6-((2-cyanobenzyl)oxy)-4-(piperidine-1-carbonyl)quin-oline-2-carbonyl)-4-phenyl-piperidine-4-carbonitrile] | 30.1 nM
N#Cc1ccc(COc2ccc3nc(C(=O)N4CCC(C#N)(c5ccccc5)CC4)cc(C(=O)N4CCCCC4)c3c2)cc1 [Example 31, 1-(6-((4-cyanobenzyl)oxy)-4-(piperidine-1-carbonyl)quin-oline-2-carbonyl)-4-phenyl-piperidine-4-carbonitrile] | 24.9 nM
N#Cc1cccc(COc2ccc3nc(C(=O)N4CCC(C#N)(c5ccccc5)CC4)cc(C(=O)N4CCCCC4)c3c2)c1 [Example 32, 1-(6-((3-cyanobenzyl)oxy)-4-(piperidine-1-carbonyl)quin-oline-2-carbonyl)-4-phenyl-piperidine-4-carbonitrile] | 46.9 nM
N#CC1(c2ccccc2)CCN(C(=O)c2cc(C(=O)N3CCCCC3)c3cc(OCc4cccc(OC(F)F)c4)ccc3n2)CC1 [Example 33, 1-(6-((3-(difluoro-l3-meth-oxy)phenyl)methoxy)-4-(piperidine-1-carbonyl)quin-oline-2-carbonyl)-4-phenyl-piperidine-4-carbonitrile] | 35.9 nM
N#CC1(c2ccccc2)CCN(C(=O)c2cc(C(=O)N3CCCCC3)c3cc(OCc4ccc(-c5nnco5)cc4)ccc3n2)CC1 [Example 34, 1-(6-((4-(1,3,4-oxadiazol-2-yl)benzyl)oxy)-4-(piperidine-1-carbonyl)quinoline-2-car-bonyl)-4-phenylpiperidine-4-carbonitrile] | 41.4 nM
N#CC1(c2ccccc2)CCN(C(=O)c2cc(C(=O)N3CCCCC3)c3cc(OCc4ccc(OC(F)(F)F)cc4)ccc3n2)CC1 [Example 35, 4-phenyl-1-(4-(piperidine-1-carbonyl)-6-((4-(trifluoro-methoxy)benzyl)oxy)quin-oline-2-carbonyl)piperidine-4-carbonitrile] | 37.7 nM
N#CC1(c2ccccc2)CCN(C(=O)c2cc(C(=O)N3CCCCC3)c3cc(OCc4ccc(OC(F)F)cc4)ccc3n2)CC1 [Example 36, 1-(6-((4-(difluoro-l3-meth-oxy)phenyl)methoxy)-4-(piperidine-1-carbonyl)quin-oline-2-carbonyl)-4-phenyl-piperidine-4-carbonitrile] | 29.1 nM
N#CC1(c2ccccc2)CCN(C(=O)c2cc(C(=O)N3CCCCC3)c3cc(OCc4ccc([N+](=O)[O-])cc4)ccc3n2)CC1 [Example 37, 1-(6-((4-nitrobenzyl)oxy)-4-(piperidine-1-carbonyl)quin-oline-2-carbonyl)-4-phenyl-piperidine-4-carbonitrile] | 48.2 nM
N#CC1(c2ccccc2)CCN(C(=O)c2cc(C(=O)N3CCCCC3)c3cc(OCc4ccc(C(F)(F)F)cc4)ccc3n2)CC1 [Example 38, 4-phenyl-1-(4-(piperidine-1-carbonyl)-6-((4-(trifluoro-methyl)benzyl)oxy)quin-oline-2-carbonyl)piperidine-4-carbonitrile] | 49.5 nM
COc1ccc(COc2ccc3nc(C(=O)N4CCC(C#N)(c5ccccc5)CC4)cc(C(=O)N4CCCCC4)c3c2)cc1F [Example 39, 1-(6-((3-fluoro-4-methoxy-benzyl)oxy)-4-(piperidine-1-carbonyl)quinoline-2-carbon-yl)-4-phenylpiperidine-4-carbonitrile] | 31.8 nM
COc1ccc(COc2ccc3nc(C(=O)N4CCC(C#N)(c5ccccc5)CC4)cc(C(=O)N4CCCCC4)c3c2)c(Cl)c1 [Example 40, 1-(6-((2-chloro-4-methoxy-benzyl)oxy)-4-(piperidine-1-carbonyl)quinoline-2-carbon-yl)-4-phenylpiperidine-4-carbonitrile] | 49.9 nM
COc1cccc(COc2ccc3nc(C(=O)N4CCC(C#N)(c5ccccc5)CC4)cc(C(=O)N4CCCCC4)c3c2)c1 [Example 41, 1-(6-((3-methoxybenzyl)oxy)-4-(piperidine-1-carbonyl)quin-oline-2-carbonyl)-4-phenyl-piperidine-4-carbonitrile] | 30.5 nM
COc1ccc(COc2ccc3nc(C(=O)N4CCC(C#N)(c5ccccc5)CC4)cc(C(=O)N4CCCCC4)c3c2)c(C(F)(F)F)c1 [Example 42, 1-(6-((4-methoxy-2-(tri-fluoromethyl)benzyl)oxy)-4-(piperidine-1-carbonyl)quin-oline-2-carbonyl)-4-phenyl-piperidine-4-carbonitrile] | 48.7 nM
N#CC1(c2ccccc2)CCN(C(=O)c2cc(C(=O)N3CCCCC3)c3cc(OCc4ccc(F)cc4F)ccc3n2)CC1 [Example 43, 1-(6-((2,4-difluorobenzyl)-oxy)-4-(piperidine-1-carbon-yl)quinoline-2-carbonyl)-4-phenylpiperidine-4-carbonitrile] | 38.5 nM
N#Cc1ccc(F)cc1COc1ccc2nc(C(=O)N3CCC(C#N)(c4ccccc4)CC3)cc(C(=O)N3CCCCC3)c2c1 [Example 44, 1-(6-((2-cyano-5-fluoro-benzyl)oxy)-4-(piperidine-1-carbonyl)quinoline-2-carbon-yl)-4-phenylpiperidine-4-carbonitrile] | 44.6 nM
N#Cc1cc(F)ccc1COc1ccc2nc(C(=O)N3CCC(C#N)(c4ccccc4)CC3)cc(C(=O)N3CCCCC3)c2c1 [Example 45, 1-(6-((2-cyano-4-fluoro-benzyl)oxy)-4-(piperidine-1-carbonyl)quinoline-2-carbon-yl)-4-phenylpiperidine-4-carbonitrile] | 36.9 nM
